{
  "source": "patent US5690906A",
  "about": "(The Trustees of the University of Pennsylvania, priority 1995, dated 1997)",
  "key": {"[1]": {"target": "T1, 5-HT1A receptor (Rattus norvegicus, UniProt P19327)", "T1 construct": "from tissue; host or cells: rat hippocampus membrane homogenates", "T1 sequence (P19327 1-422)": "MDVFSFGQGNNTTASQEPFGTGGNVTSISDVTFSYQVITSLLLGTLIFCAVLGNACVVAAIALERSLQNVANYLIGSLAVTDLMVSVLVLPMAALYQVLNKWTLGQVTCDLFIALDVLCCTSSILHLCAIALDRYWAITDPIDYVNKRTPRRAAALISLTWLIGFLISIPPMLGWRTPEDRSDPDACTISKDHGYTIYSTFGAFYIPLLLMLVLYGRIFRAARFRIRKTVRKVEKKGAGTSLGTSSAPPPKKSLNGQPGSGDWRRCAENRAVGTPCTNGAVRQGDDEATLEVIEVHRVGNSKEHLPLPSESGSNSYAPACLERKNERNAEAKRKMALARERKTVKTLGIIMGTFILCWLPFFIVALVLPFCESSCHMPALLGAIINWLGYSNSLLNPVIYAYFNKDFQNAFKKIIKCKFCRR", "assay": "Inhibition of [^3 H]-8-OH-DPAT binding to rat hippocampal membrane homogenates", "settings": "for Ki: against [^3 H]-8-OH-DPAT, rat hippocampus membranes, read-out: K1 (inhibition constant)", "description": "The hippocampal homogenates were prepared in 100 volumes of ice-cold Tris-HCl buffer (50mM, pH 7.4) and centrifuged at 20,000 g for 20 minutes. […] The final pellets were resuspended in the Tris-buffer containing 2mM of MgCl2. […] The tubes were incubated at 37° C. for fifteen minutes and then terminated by vacuum filtration through glass filters (Schleicher & Schuell, No. 25, Keene, N.H.) soaked with 1% polyethylimine. […] Both Scatchard and competition experiments were analyzed using the iterative least-squarecurve fitting program LIGAND."}, "[2]": {"system": "dopamine D2L receptor", "assay": "Specific binding of [^125 I]trans-7-OH-PIPAT to D2L receptors expressed in Sf9 cells", "parameters": "species or system rat", "settings": "data not shown"}, "[3]": {"system": "dopamine D2S receptor", "assay": "Specific binding of [^125 I]trans-7-OH-PIPAT to D2S receptors expressed in Sf9 cells", "parameters": "species or system rat", "settings": "data not shown"}, "[4]": {"assay": "Stability of the radiolabelled product on storage (HPLC)", "format": "physicochemical", "description": "Hydrogen peroxide ([…]) was added to a mixture of […] (1mg/ml EtOH), […] and I-125 (2-3 mCi) in a sealed vial. The reaction was allowed to proceed for 20 min at room temperature, and was then terminated by addition of 0.1 ml of sodium bisulfite (300 mg/ml). The reaction mixture was extracted with ethyl acetate (3×1 ml) after neutralization with saturated NaHCO3 solution. The extracted ethyl acetate layers were evaporated to dryness, and the remaining residue was dissolved in EtOH and purified by HPLC using a reverse phase column (PRP-1 column, Hamilton Co., Reno, Nev.) eluted with an isocratic solvent of 80% acetonitrile-20% pH 7.0 buffer (5 mM 3,3'-dimethylglutaric acid). The fractions containing the desired product were collected, condensed and re-extracted with ethyl acetate (3×1 ml). The no-carrier-added final product (purity >98%) was evaporated to dryness and redissolved in […] with 100 mg ascorbic acid added as an anti-oxidant.\nNo-carrier-added [^125 I ]trans-8-OH-PIPAT(^125 I]8) was prepared by an iododestannylation reaction similar to the procedure reported previously (Acta. Chim. Scan., 1988, B42, 231-236). Hydrogen peroxide (50 μl 3% w/v) was added to a mixture of 50 μl of tributyltin precursor, 11 (11 mg/ml EtOH), 50 μl of 1N HCl and I-125 (2-3 mCi) in a sealed vial. The reaction was allowed to proceed for 20 minutes at room temperature, and was then terminated by addition of 0.1 ml of sodium bisulfite (300 mg/ml). The reaction mixture was extracted with ethyl acetate (3×1 ml) after neutralization with saturated NaHCO3 solution. The extracted ethyl acetate layers were evaporated to dryness, and the remaining residue was dissolved in EtOH and purified by HPCL using a reverse phase column (PRP-1 column, Hamilton Co., Reno, Nev.) eluted with an isocratic solvent of 80% acetonitrile-20% pH 7.0 buffer (5 mM 3,3'-dimethylglutaric acid); the retention time was 9 minutes (1 ml/min). The fractions containing the desired product were collected, condensed and re-extracted with ethyl acetate (3×1 ml). The final product of no-carrier-added (purity>98%) was evaporated to dryness and redissolved in 100 μl of 50% EtOH with 100 μg of ascorbic acid added as an anti-oxidant. The final product [^125 I] trans-8-OH-PIPAT(^125 I]8) was stored at -20° C."}, "[5]": {"target": "T2, D2 dopamine receptor (Rattus norvegicus, UniProt P61169)", "T2 construct": "made in house; host or cells: Sf9 insect cells infected with recombinant baculovirus (AcMNPVrD2L or AcMNPVrD2S), membrane homogenates", "T2 sequence (P61169 whole entry)": "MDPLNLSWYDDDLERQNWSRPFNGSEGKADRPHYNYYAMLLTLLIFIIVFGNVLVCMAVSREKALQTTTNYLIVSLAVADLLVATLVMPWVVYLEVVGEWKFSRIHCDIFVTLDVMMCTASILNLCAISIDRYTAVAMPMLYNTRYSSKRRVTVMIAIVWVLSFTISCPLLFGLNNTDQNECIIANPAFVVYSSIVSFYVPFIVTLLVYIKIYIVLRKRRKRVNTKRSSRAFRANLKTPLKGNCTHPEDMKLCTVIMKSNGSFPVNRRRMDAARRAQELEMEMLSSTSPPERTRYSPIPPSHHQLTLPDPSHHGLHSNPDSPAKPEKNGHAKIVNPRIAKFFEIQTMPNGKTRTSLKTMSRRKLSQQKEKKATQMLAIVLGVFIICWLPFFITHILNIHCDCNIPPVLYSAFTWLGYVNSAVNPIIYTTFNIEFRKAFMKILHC", "assay": "Inhibition of [^125 I]NCQ298 binding to D2 dopamine receptors expressed in Sf9 cells", "settings": "Table 4; Hill coefficient"}, "[6]": {"target": "T3, D3 dopamine receptor (Rattus norvegicus, UniProt P19020)", "T3 construct": "made in house; host or cells: Sf9 insect cells infected with recombinant baculovirus AcMNPVrD3, membrane homogenates", "T3 sequence (P19020 whole entry)": "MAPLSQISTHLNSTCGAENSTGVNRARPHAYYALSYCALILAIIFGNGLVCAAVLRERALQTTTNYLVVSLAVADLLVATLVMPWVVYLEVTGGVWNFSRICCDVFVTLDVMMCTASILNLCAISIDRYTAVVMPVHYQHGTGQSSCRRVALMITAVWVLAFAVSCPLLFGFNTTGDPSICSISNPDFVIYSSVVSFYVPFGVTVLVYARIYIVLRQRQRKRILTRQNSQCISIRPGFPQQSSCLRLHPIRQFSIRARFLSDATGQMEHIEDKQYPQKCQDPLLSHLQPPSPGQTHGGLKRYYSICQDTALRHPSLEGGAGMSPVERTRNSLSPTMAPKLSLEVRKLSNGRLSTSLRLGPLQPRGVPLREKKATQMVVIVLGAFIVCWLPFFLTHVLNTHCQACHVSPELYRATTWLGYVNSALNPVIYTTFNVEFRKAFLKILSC", "assay": "Inhibition of [^125 I]NCQ298 binding to D3 dopamine receptors expressed in Sf9 cells", "settings": "Table 4; Hill coefficient", "description": "The construction of pVL1393-rD3 was previously described. […] An aliquot of membranes was used for radioligand binding.\nMembranes from AcMNPV-rD3 infected Sf9 cells were prepared. […] Assays were incubated at 37° C. for 20 min. then filtered and washed as described above."}, "[7]": {"target": "D3 receptors (expressed in Sf9 cells) (Rattus norvegicus, UniProt P19020)", "sequence (P19020 whole entry)": "as above", "procedure": "Plasmid DNA was isolated by alkaline dialysis and purified by CsCl density gradient centrifugation and overnight dialysis for transfection of Sf9 cells. […] A monolayer of Sf9 cells (approximately 2×10^6 cells/T25 plate) was cotransfected by calcium phosphate precipitation, with 1 mg of AcMNPV DNA (provided by Dr. Max Summers, Texas A&M University, College Station, Tex.) and 2 mg of recombinant transfer vector DNA. […] Putative recombinant viral plaques were chosen by visual screening for occlusion-negative plaques and used to infect 1×10^6 Sf9 cells in a 6-well plate (CoStar, Cambridge, Mass.). Four days after infection, cells were harvested and membranes were prepared. An aliquot of membranes was used for radioligand binding. […] The membrane homogenates of AcMNPVrD3 infected Sf9 cells were prepared as described. Briefly, the harvested cells were centrifuged, resuspended and homogenized in buffer containing 50 mM Tris, pH7.4, 150mM NaCl, 10 mM EDTA and a mixture of protease inhibitors (1 mg/ml aprotinin, 1 mg/ml leupeptin, 1 mg/ml soybean trypsin inhibitor, 10 mg/ml PMSF). The final pellets obtained were resuspended in the same buffer and kept at -20° C. for radioligand binding assays.\nBinding assays were performed in glass tubes (12×75 mm) in a final volume of 0.2 ml. The buffer used for the dilution contained 50 mM Tris, pH 7.4, and the protease inhibitors mixture. […] The competition experiments were performed in the presence of 120 mM NaCl. […] After incubation for 30 min at 37° C. or 90 min at 25° C., the bound ligand was separated from the free ligand by filtration through glass fiber filters No. 25 (Schleicher & Schuell, Keene, N.H.) soaked with 0.2% protamine free base. The filters were then washed twice with 4 ml of ice-cold buffer (containing 50 mM Tris-HCl, pH 7.4) and the radioactivity on the filters was counted in a gamma counter (Packard 5000) with 70% efficiency."}},
  "note": "Like-named read-outs stand apart in the source and are kept apart here.",
  "data": [
    {"compound": "CCCN(C/C=C/I)C1CCc2cccc(OC)c2C1", "note": "(mixture of isomers) [(±)trans-8-OMe-PIPAT, trans-8-Methoxy-2-[N-propyl-N-(3'-iodo-2'propenyl)]aminotetralin]", "values": [
      {"measurement": "Ki", "setting": "[1]", "result": "12.6 ± 1.5", "unit": "nM"}
    ]},
    {"compound": "CCCN(C/C=C/[125I])C1CCc2ccc(O)cc2C1", "note": "(stereo not drawn) [[^125 I]trans-7-OH-PIPAT]", "values": [
      {"measurement": "specific binding toward D2L", "setting": "[2]", "result": "no specific binding"},
      {"measurement": "specific binding toward D2S", "setting": "[3]", "result": "no specific binding"},
      {"measurement": "stability of the product on storage", "setting": "[4]", "result": "stable for at least four weeks"},
      {"measurement": "purity after storage for at least four weeks", "setting": "[4]; 50% etoh with ascorbic acid, 672 h", "result": "> 95", "unit": "%"}
    ]},
    {"compound": "CCCN(CCC)C1CCc2ccc(O)cc2C1", "note": "(stereo not drawn) [7-OH-DPAT, 7Hydroxy-2-N,N-n-Dipropylaminotetralin, reference compound]", "values": [
      {"measurement": "HC D2", "setting": "[5]", "result": 1.02},
      {"measurement": "HC D3", "setting": "[6]", "result": 0.85},
      {"measurement": "Hill Co.", "setting": "[7]; Table 3, [^125 I]trans-7-OH-PIPAT competition, 37° C., 120 mM NaCl", "result": 0.87},
      {"measurement": "affinity for the D3 receptor", "setting": "[7]; competition with [^125 I]trans-7-OH-PIPAT", "result": "high affinity"}
    ]},
    {"compound": "CCCN(C/C=C/[125I])C1CCc2cccc(O)c2C1", "note": "(stereo not drawn) [[^125 I] trans-8-OH-PIPAT]", "values": [
      {"measurement": "purity after storage for at least four weeks", "setting": "[4]; -20° C., analyzed by HPLC, 40320 min", "result": 95, "unit": "%"},
      {"measurement": "stability of the product on storage", "setting": "[4]; stored at -20° C., 50% EtOH with ascorbic acid", "result": "stable for at least four weeks"}
    ]},
    {"compound": "COc1cccc2c1CC(NC/C=C/I)CC2", "note": "(racemic) [(±)trans-8-OMe-IPAT, 8-Methoxy-2-(N-3'-iodo-2'-propenyl) aminotetralin]", "values": [
      {"measurement": "Ki", "setting": "[1]", "result": "17 ± 2.2", "unit": "nM"}
    ]},
    {"compound": "Oc1cccc2c1CC(NC/C=C/I)CC2", "note": "(racemic) [(±)trans-8-OH-IPAT, 8-Hydroxy-2-(N-3'-iodo-2'propenyl)aminotetralin]", "values": [
      {"measurement": "Ki", "setting": "[1]", "result": "10 ± 2", "unit": "nM"}
    ]},
    {"compound": "CCCN(C/C=C/I)C1CCc2cccc(O)c2C1", "note": "(mixture of isomers) [(±)trans-8-OH-PIPAT, trans-8-Hydroxy-2-[N-propyl-N-(3'-iodo-2'propenyl)] aminotetralin]", "values": [
      {"measurement": "affinity / selectivity for 5-HT1A", "setting": "[1]", "result": "unique high affinity and selectivity toward serotonin 5-HT1A sites"},
      {"measurement": "Ki", "setting": "[1]", "result": "0.92 ± 0.13", "unit": "nM"}
    ]}
  ]
}
